Results: EPA's CvTdb concentration-time database

Tests used:
Rat [1] = experiment: concentration in plasma after dosing; conditions: dosed: Perfluorooctane Sulfonate, 2 mg/kg, iv, Female, Harlan Sprague-Dawley
Rat [2] = experiment: concentration in liver after dosing; conditions: 1848 h; dosed: Perfluorooctane Sulfonate; 20 mg/kg; oral; Male; Harlan Sprague Dawley
Rat [3] = experiment: concentration in kidney after dosing; conditions: 24 h; dosed: Perfluorooctane Sulfonate; 2 mg/kg; oral; Female; Harlan Sprague Dawley
Rat [4] = experiment: concentration in kidney after dosing; conditions: 864 h; dosed: Perfluorooctane Sulfonate; 20 mg/kg; oral; Male; Harlan Sprague Dawley
Rat [5] = experiment: concentration in kidney after dosing; conditions: 6 h; dosed: Perfluorooctane Sulfonate; 20 mg/kg; oral; Female; F344
Rat [6] = experiment: concentration in liver after dosing; conditions: 24 h; dosed: Perfluorooctane Sulfonate; 20 mg/kg; oral; Male; Harlan Sprague Dawley
Rat [7] = experiment: concentration in plasma after dosing; conditions: 6 h; dosed: Perfluorooctane Sulfonate; 2 mg/kg; oral; Female; Harlan Sprague Dawley
Rat [8] = experiment: concentration in brain after dosing; conditions: 6 h; dosed: Perfluorooctane Sulfonate; 20 mg/kg; oral; Female; F344
Rat [9] = experiment: concentration in liver after dosing; conditions: 24 h; dosed: Perfluorooctane Sulfonate; 20 mg/kg; oral; Female; F344
Rat [10] = experiment: concentration in plasma after dosing; conditions: dosed: Perfluorohexanoic Acid, 80 mg/kg, oral, Male, Harlan Sprague Dawley
Rat [11] = experiment: concentration in brain after dosing; conditions: 1 h; dosed: Perfluorohexanoic Acid; 80 mg/kg; oral; Female; Harlan Sprague Dawley
Rat [12] = experiment: concentration in liver after dosing; conditions: 0.5 h; dosed: Perfluorohexanoic Acid; 80 mg/kg; oral; Male; Harlan Sprague Dawley
Rat [13] = experiment: concentration in plasma after dosing; conditions: dosed: Perfluorohexanoic Acid, 40 mg/kg, oral, Male, Harlan Sprague Dawley
Rat [14] = experiment: concentration in plasma after dosing; conditions: 1 h; dosed: Perfluorohexanoic Acid; 80 mg/kg; oral; Male; Harlan Sprague Dawley
Rat [15] = experiment: concentration in plasma after dosing; conditions: 1.5 h; dosed: Perfluorohexanoic Acid; 40 mg/kg; iv; Male; F344
Rat [16] = experiment: concentration in kidney after dosing; conditions: 0.5 h; dosed: Perfluorohexanoic Acid; 80 mg/kg; oral; Male; Harlan Sprague Dawley
Rat [17] = experiment: concentration in kidney after dosing; conditions: 6 h; dosed: Perfluorohexanoic Acid; 80 mg/kg; oral; Male; Harlan Sprague Dawley
rat [18] = experiment: concentration in blood after dosing; conditions: dosed: trichloroethylene
Rat [19] = experiment: concentration in plasma after dosing; conditions: 2 h; dosed: Gemfibrozil; 100 mg/kg; oral; Male; Sprague-Dawley
Rat [20] = experiment: concentration in plasma after dosing; conditions: 18 h; dosed: Gemfibrozil; 4.29 mg/kg; oral; Male; Sprague-Dawley
Rat [21] = experiment: concentration in plasma after dosing; conditions: 10 min; dosed: Gemfibrozil; 100 mg/kg; oral; Male; Sprague-Dawley
Rat [22] = experiment: concentration in plasma after dosing; conditions: 0.5 h; dosed: 2-Methyltetrahydrofuran; 40 mg/kg; iv; Female; Harlan Sprague Dawley
Rat [23] = experiment: concentration in plasma after dosing; conditions: 1.5 h; dosed: 2-Methyltetrahydrofuran; 40 mg/kg; iv; Male; Harlan Sprague Dawley
Rat [24] = experiment: concentration in plasma after dosing; conditions: 2 min; dosed: 2-Methyltetrahydrofuran; 40 mg/kg; iv; Male; Harlan Sprague Dawley
Rat [25] = experiment: concentration in plasma after dosing; conditions: 192 h; dosed: 678-39-7; 12 mg/kg; iv; Male; F344
Rat [26] = experiment: concentration in plasma after dosing; conditions: dosed: 678-39-7, 12 mg/kg, iv, Male, F344
Rat [27] = experiment: concentration in plasma after dosing; conditions: dosed: 678-39-7, 40 mg/kg, iv, Female, Harlan Sprague-Dawley
Rat [28] = experiment: concentration in kidney after dosing; conditions: 3 h; dosed: Fluorotelomer alcohol 8+2; 24 mg/kg; oral; Male; Harlan Sprague Dawley
Rat [29] = experiment: concentration in kidney after dosing; conditions: 6 h; dosed: Fluorotelomer alcohol 8+2; 24 mg/kg; oral; Male; Harlan Sprague Dawley
Rat [30] = experiment: concentration in brain after dosing; conditions: 6 h; dosed: Fluorotelomer alcohol 8+2; 24 mg/kg; oral; Male; Harlan Sprague Dawley

O=S(=O)([O-])C(F)(F)C(F)(F)C(F)(F)C(F)(F)C(F)(F)C(F)(F)C(F)(F)C(F)(F)F [Perfluorooctane Sulfonate]
Rat [1]
Conditions | concentration in plasma [ng/mL]
5 min | 5920
24 h | 5370

Conditions | concentration in brain [ng/g] | concentration in kidney [ng/g] | concentration in liver [ng/g] | concentration in plasma [ng/mL]
Rat [2] | – | – | 51700 | –
Rat [3] | – | 8400 | – | –
Rat [4] | – | 17800 | – | –
Rat [5] | – | 133000 | – | –
Rat [6] | – | – | 164000 | –
Rat [7] | – | – | – | 4580
Rat [8] | 3990 | – | – | –
Rat [9] | – | – | 160000 | –

O=C(O)C(F)(F)C(F)(F)C(F)(F)C(F)(F)C(F)(F)F [Perfluorohexanoic Acid]
concentration in plasma [ng/mL]
Conditions | 0.25 h | 3 h | 5 min | 24 h
Rat [10] | 91200 | – | – | 239
Rat [13] | – | 48700 | 28800 | –

Conditions | concentration in brain [ng/g] | concentration in kidney [ng/g] | concentration in liver [ng/g] | concentration in plasma [ng/mL]
Rat [11] | 1340 | – | – | –
Rat [12] | – | – | 102000 | –
Rat [14] | – | – | – | 152000
Rat [15] | – | – | – | 336
Rat [16] | – | 99400 | – | –
Rat [17] | – | 10600 | – | –

ClC=C(Cl)Cl [trichloroethylene]
rat [18], inhalation
Conditions | concentration in blood [ng/mL]
0.1294 h, 600.4 ppm, duration: 4 hr, female, Fischer-344 | 21900
0.1299 h, 50 ppm, duration: 2 hr, male, Sprague Dawley | 443
0.1617 h, 50 ppm, duration: 2 hr, male, Sprague Dawley | 402
0.2483 h, 50 ppm, duration: 2 hr, male, Sprague Dawley | 454
0.3289 h, 50 ppm, duration: 2 hr, male, Sprague Dawley | 492
0.4153 h, 50 ppm, duration: 2 hr, male, Sprague Dawley | 352
0.4974 h, 50 ppm, duration: 2 hr, male, Sprague Dawley | 493
0.5081 h, 600.4 ppm, duration: 4 hr, female, Fischer-344 | 15900
0.7511 h, 50 ppm, duration: 2 hr, male, Sprague Dawley | 433
1.002 h, 50 ppm, duration: 2 hr, male, Sprague Dawley | 555
1.016 h, 600.4 ppm, duration: 4 hr, female, Fischer-344 | 9420
1.252 h, 50 ppm, duration: 2 hr, male, Sprague Dawley | 512
1.531 h, 600.4 ppm, duration: 4 hr, female, Fischer-344 | 5750
2.018 h, 600.4 ppm, duration: 4 hr, female, Fischer-344 | 4750
110 s, 50 ppm, duration: 2 hr, male, Sprague Dawley | 206
219 s, 50 ppm, duration: 2 hr, male, Sprague Dawley | 267
350 s, 50 ppm, duration: 2 hr, male, Sprague Dawley | 337

rat [18], oral
Conditions | concentration in blood [ng/mL]
0.1447 h, 18 mg/kg, male, Wistar | 10200
0.1716 h, 7.6 mg/kg, female, F344 | 1400
0.1747 h, 18 mg/kg, male, Wistar | 7730
0.2208 h, 18 mg/kg, male, Wistar | 5020
0.2739 h, 18 mg/kg, male, Wistar | 3760
0.3228 h, 18 mg/kg, male, Wistar | 2790
0.3309 h, 7.6 mg/kg, female, F344 | 494
0.3794 h, 18 mg/kg, male, Wistar | 2110
0.4319 h, 18 mg/kg, male, Wistar | 1710
0.5005 h, 7.6 mg/kg, female, F344 | 296
0.5204 h, 18 mg/kg, male, Wistar | 1350
0.7693 h, 18 mg/kg, male, Wistar | 957
1.014 h, 18 mg/kg, male, Wistar | 768
1.512 h, 18 mg/kg, male, Wistar | 503
2.017 h, 18 mg/kg, male, Wistar | 333
2.518 h, 18 mg/kg, male, Wistar | 321
3.02 h, 18 mg/kg, male, Wistar | 214
3.529 h, 18 mg/kg, male, Wistar | 59.6
4.027 h, 18 mg/kg, male, Wistar | 47.7
125 s, 7.6 mg/kg, female, F344 | 1770
143 s, 18 mg/kg, male, Wistar | 11100
266 s, 18 mg/kg, male, Wistar | 13600
296 s, 7.6 mg/kg, female, F344 | 2100
355 s, 18 mg/kg, male, Wistar | 13000

Cc1ccc(C)c(OCCCC(C)(C)C(=O)O)c1 [Gemfibrozil]
Conditions | concentration in plasma [ng/mL]
Rat [19] | 5120
Rat [20] | 127
Rat [21] | 50400

CC1CCCO1 (stereo not given) [2-Methyltetrahydrofuran]
Conditions | concentration in plasma [ng/mL]
Rat [22] | 28500
Rat [23] | 19300
Rat [24] | 59400

O=C(O)CCC(F)(F)C(F)(F)C(F)(F)C(F)(F)C(F)(F)C(F)(F)C(F)(F)F [Fluorotelomer acid 7+3]
Conditions | concentration in brain [ng/g] | concentration in kidney [ng/g] | concentration in plasma [ng/mL]
Rat [25] | – | – | 8.6
Rat [28] | – | 1320 | –
Rat [29] | – | 822 | –
Rat [30] | 179 | – | –

concentration in plasma [ng/mL]
Conditions | Rat [26] | Rat [27]
0.75 h | 365 | 1830
12 h | 74.1 | 863
